Measured values taken from patent US9682965B2, “Fumagillol heterocyclic compounds and methods of making and using same” (Zafgen, Inc., priority 2015, dated 2017).
Structures can show the parent of a compound that is named as a salt. Where two headings read alike, the source gives them in different places.

Legend:
[1] = system: Male Sprague Dawley rats on high fat diet; assay: 11 day rat DIO model (body weight, food intake, hematology, blood chemistries); assay type: in vivo; details: 264 h, read-out: DIO Rat 11-day weight loss vs vehicle
In short: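 Male Sprague Dawley rats on 45% high-fat diet, acclimated 3 days to vehicle injections, then given compound (0.03-1.0 mg/kg) or vehicle (10% DMSO in water) sc once daily for 11 days. Body weight and food intake recorded daily. Blood taken about 2 h after the final dose for hematology and chemistry.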

[2] = system: pregnant Sprague Dawley rats (embryo/fetal development)
Excerpt: Study Summary Rat Embryofetal:
The objective of this study design was to evaluate the potential effects of disclosed compounds on embryo/fetal development when given subcutaneously to pregnant rats once every three days during the critical period of organogenesis (Gestation Days 6-18). Female, Sprague Dawley rats, approximately 10 weeks of age, time bred, were ordered from a certified vendor and housed individually housed in stainless steel cages suspended over flush pans, on a 12-hour light-dark cycle (0700-1900) at 20-26° C. and 30-70% humidity. Rats were fed a standard rodent chow and provided water ad libitum. Rats were received and housed in the facility for a period of approximately 1 to 2 days.
Compounds were formulated using 100% DMSO mixed in Sterile Water for Injection, resulting in 2% DMSO solution in water. If necessary, due to limited solubility of a test article, a higher percentage of DMSO solution in water was used. Groups of 8 mated and presumed pregnant female rats were given subcutaneous doses of vehicle or test article, once every three days, beginning on Gestation Day 6 and ending on Gestation Day 18 (Days 6, 9, 12, 15, and 18), maintained two more days, and then euthanized and necropsied on Gestation Day 20. Body weights was recorded for all animals on Gestation Days 5 (purpose of randomization), 6, 9, 12, 15, 18, and 20 (scheduled euthanasia). Food consumption by weight was recorded on Gestation Days 6, 9, 12, 15, 18, and 20 (scheduled termination).
At necropsy, the dams were examined visually for external abnormalities including palpable masses. The abdominal, thoracic, and cranial cavities and their contents were examined for abnormalities and findings will be recorded. The reproductive tract were examined to record the number of ovarian corpora lutea, the number and location of uterine implantation sites noting the position of the cervix, and the number of early resorptions, late resorptions, live fetuses, and dead fetuses. For dead fetuses and late resorptions, crown-to-rump length and weight were recorded, if possible, and the fetus was discarded. For viable fetuses, weight, sex, and grossly visible external abnormalities were recorded.

[3] = system: Diet Induced Obese (DIO) C57BL/6 mice; assay: 10 day DIO mouse model (body weight, food intake, hematology, blood chemistry); assay type: in vivo; details: 240 h, read-out: DIO Mouse 10-day weight loss vs vehicle; for inhibition in vivo at 0.1 mg/kg: 0.1 mpk sc; for inhibition in vivo at 1 mg/kg: 1.0 mpk sc
In short: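 DIO C57BL/6 mice on 60% kcal fat diet received compounds subcutaneously once daily for 10 days at 1.0, 0.5, 0.3, 0.1 or 0.03 mpk, in 10% DMSO in water, after 3-day vehicle acclimation. Body weight and food intake were recorded daily. Hematology and blood chemistry were taken on Day 11, 24 h post-final dose.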

[4] = target: recombinant human MetAP2 (Homo sapiens (Human), UniProt P50579); assay: recombinant human MetAP2 enzyme inhibition assay; assay type: biochemical
Description: Compounds are tested for their capacity to inhibit recombinant human MetAP2 activity using the following assay.
Flag tagged Human recombinant MetAP2 expressed and isolated for use as the enzyme source. 10 mM stock solutions of compounds were prepared in 100% DMSO and further diluted in 100% DMSO required concentration to 1 mM stocks. The stock compound solutions and DMSO vehicle controls were diluted to target final compound concentrations using assay buffer to a final concentration of 50 mM HEPES containing 100 mM NaCl, pH adjusted to 7.5. The MAS peptide was formulated to a 7.5 mM stock in distilled water and prior to use further diluted 1:4. […] 40 μl of enzyme was mixed with 100 μl of MnCl2 then further diluted in assay buffer to a final concentration of 16 μg/ml. To test for compound effect on MetAP2 enzyme activity, 5 μl of test compound, 10 μl of MAS substrate/amino acid oxidase mixture, 10 μl of MetAP2 was added to test wells in a 384 well black plate with blank wells containing no enzyme, replaced with 10 μl of assay buffer. All compounds were tested in duplicate on two occasions on the same day.
The plate was sealed with a TopSeal A cover and mixed briefly on an orbital mixer at 900 rpm. The plate was incubated for a further 25 minutes at 25° C. A 5× stock of Amplex buffer was prepared (0.25M sodium phosphate, pH 7.4) and stored at 4° C. […] 25 μl detection reagent was added to each well of the test plate, which was re-sealed and mixed briefly on an orbital shaker.

[5] = DIO rat, 1.0 mpk sc, once a day for 11 days
[6] = 6 mpk, subcutaneous, once every three days, Gestation Days 6-18, pregnant rats
[7] = DIO mouse, once a day for 10 days
[8] = DIO mouse, 0.3 mpk sc, once a day for 10 days
[9] = recombinant human MetAP2, MAS peptide substrate, 25 minutes at 25° C
[10] = DIO rat, 0.3 mpk sc, once a day for 11 days

Sequence of recombinant human MetAP2 (P50579 whole entry): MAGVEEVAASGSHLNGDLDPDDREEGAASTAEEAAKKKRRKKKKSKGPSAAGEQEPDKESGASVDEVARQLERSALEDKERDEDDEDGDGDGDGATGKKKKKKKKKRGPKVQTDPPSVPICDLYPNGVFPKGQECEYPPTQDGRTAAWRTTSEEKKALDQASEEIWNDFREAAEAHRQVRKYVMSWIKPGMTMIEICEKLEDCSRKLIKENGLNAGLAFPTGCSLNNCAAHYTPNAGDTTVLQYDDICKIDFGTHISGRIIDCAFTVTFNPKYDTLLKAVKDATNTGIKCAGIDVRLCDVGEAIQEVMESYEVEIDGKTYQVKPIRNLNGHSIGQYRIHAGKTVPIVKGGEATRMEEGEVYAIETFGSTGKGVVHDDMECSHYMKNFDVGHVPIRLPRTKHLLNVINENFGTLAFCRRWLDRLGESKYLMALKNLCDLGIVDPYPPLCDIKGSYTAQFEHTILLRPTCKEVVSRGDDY

SMILES | inhibition in vivo at 1 mg/kg [1, 5] | Rat Embryofetal @6 mpk [2, 6] | inhibition in vivo at 0.3 mg/kg [3, 8] | inhibition in vivo at 0.3 mg/kg [1, 10] | inhibition in vivo at 0.3 mg/kg ([1]; Rattus norvegicus, sc) | Rat Embryofetal @6 mpk ([2]; rat, in vivo) | inhibition in vivo at 0.3 mg/kg ([3]; Mus musculus, sc) | other results
CCN(CC)CCC1CN(C(=O)O[C@@H]2CC[C@]3(CO3)[C@@H]([C@@]3(C)O[C@@H]3CC=C(C)C)[C@@H]2OC)C1 [Example 103, (3R,4S,5S,6R)-5-methoxy-4-((2R,3R)-2-methyl-3-(3-methylbut-2-enyl)oxiran-2-yl)-1-oxaspiro[2.5]octan-6-yl 3-(2-(diethylamino)ethyl)azetidine-1-carboxylate] | 4.7% | Positive | 6.7% | – | – | – | – | inhibition in vivo at 0.5 mg/kg ([1]; DIO rat, 0.5 mpk sc, once a day for 11 days): 2.57%; inhibition in vivo at 0.1 mg/kg [3, 7]: 5.1%; inhibition in vivo at 1 mg/kg [3, 7]: 15.8%; IC50 [4, 9]: < 0.05 µM
CNC(=O)OC1CN(C(=O)O[C@@H]2CC[C@]3(CO3)[C@@H]([C@@]3(C)O[C@@H]3CC=C(C)C)[C@@H]2OC)C1 [Example 74, (3R,4S,5S,6R)-5-methoxy-4-((2R,3R)-2-methyl-3-(3-methylbut-2-enyl)oxiran-2-yl)-1-oxaspiro[2.5]octan-6-yl 3-(methylcarbamoyloxy)azetidine-1-carboxylate] | 6% | Negative | 12.3% | 7.9% | – | – | – | IC50 [4, 9]: < 0.05 µM
CCN(CC)CCCC1CN(C(=O)O[C@@H]2CC[C@]3(CO3)[C@@H]([C@@]3(C)O[C@@H]3CC=C(C)C)[C@@H]2OC)C1 [Example 104, (3R,4S,5S,6R)-5-methoxy-4-((2R,3R)-2-methyl-3-(3-methylbut-2-enyl)oxiran-2-yl)-1-oxaspiro[2.5]octan-6-yl 3-(3-(diethylamino)propyl)azetidine-1-carboxylate] | 9.9% | Positive | 6.4% | 1.2% | – | – | – | inhibition in vivo at 0.03 mg/kg ([3]; DIO mouse, 0.03 mpk sc, once a day for 10 days): -0.9%; inhibition in vivo at 0.1 mg/kg [3, 7]: 8.3%; inhibition in vivo at 1 mg/kg [3, 7]: 10.9%
CO[C@@H]1[C@H](OC(=O)N2CC(OC(=O)N3CCN(C)CC3)C2)CC[C@]2(CO2)[C@H]1[C@@]1(C)O[C@@H]1CC=C(C)C [Example 78, 1-(((3R,4S,5S,6R)-5-methoxy-4-((2R,3R)-2-methyl-3-(3-methylbut-2-enyl)oxiran-2-yl)-1-oxaspiro[2.5]octan-6-yloxy)carbonyl)azetidin-3-yl 4-methylpiperazine-1-carboxylate] | – | Positive | 10.7% | 1.2% | – | – | – | –
CCN(CC)CCNC(=O)CCC1CN(C(=O)O[C@@H]2CC[C@]3(CO3)[C@@H]([C@@]3(C)O[C@@H]3CC=C(C)C)[C@@H]2OC)C1 [Example 88, (3R,4S,5S,6R)-5-methoxy-4-((2R,3R)-2-methyl-3-(3-methylbut-2-enyl)oxiran-2-yl)-1-oxaspiro[2.5]octan-6-yl 3-(3-(2-(diethylamino)ethylamino)-3-oxopropyl)azetidine-1-carboxylate formate] | – | – | – | – | 4.4% | Positive | 9% | IC50 [4]: < 0.05 µM
CO[C@@H]1[C@H](OC(=O)N2CC(CCN3CCOCC3)C2)CC[C@]2(CO2)[C@H]1[C@@]1(C)O[C@@H]1CC=C(C)C [Example 1, (3R,4S,5S,6R)-5-methoxy-4-((2R,3R)-2-methyl-3-(3-methylbut-2-en-1-yl)oxiran-2-yl)-1-oxaspiro[2.5]octan-6-yl 3-(2-morpholinoethyl)azetidine-1-carboxylate] | 7.7% | Negative | 16.8% | 5.7% | – | – | – | –
CO[C@@H]1[C@H](OC(=O)/C=C/c2ccc(OCCN(C)C)cc2)CC[C@]2(CO2)[C@H]1[C@@]1(C)O[C@@H]1CC=C(C)C [A, [(3R,6R,7S,8S)-7-methoxy-8-[(2R,3R)-2-methyl-3-(3-methylbut-2-enyl)oxiran-2-yl]-2-oxaspiro[2.5]octan-6-yl] (E)-3-[4-[2-(dimethylamino)ethoxy]phenyl]prop-2-enoate, reference compound] | – | Positive | 18% | 20% | – | – | – | –
CO[C@@H]1[C@H](OC(=O)N2CC(CCN3CC(C)(O)C3)C2)CC[C@]2(CO2)[C@H]1[C@@]1(C)O[C@@H]1CC=C(C)C [Example 9, (3R,4S,5S,6R)-5-methoxy-4-((2R,3R)-2-methyl-3-(3-methylbut-2-enyl)oxiran-2-yl)-1-oxaspiro[2.5]octan-6-yl 3-(2-(3-hydroxy-3-methylazetidin-1-yl)ethyl)azetidine-1-carboxylate formate] | – | – | – | – | 5.5% | Positive | 7.4% | inhibition in vivo at 1 mg/kg ([1]; Rattus norvegicus, sc): 4.8%
CO[C@@H]1[C@H](OC(=O)N2CC(CCN3CC(O)C3)C2)CC[C@]2(CO2)[C@H]1[C@@]1(C)O[C@@H]1CC=C(C)C [Example 6, (3R,4S,5S,6R)-5-methoxy-4-((2R,3R)-2-methyl-3-(3-methylbut-2-enyl)oxiran-2-yl)-1-oxaspiro[2.5]octan-6-yl 3-(2-(3-hydroxyazetidin-1-yl)ethyl)azetidine-1-carboxylate formate] | – | – | – | – | 0.8% | Positive | 11.8% | inhibition in vivo at 1 mg/kg ([1]; Rattus norvegicus, sc): 4.6%
